Series [1] concerns VZV (Ellen, VR-1367). As to the kind of experiment: CPE inhibition antiviral assay, VZV. The format is cell-based, varicella-zoster virus (VZV). Conditions: Human alphaherpesvirus 3; inhibition of virus-induced cytopathic effect by 50%; strain Ellen; MTT readout. The method, then: (§1) All the final compounds 3a–f and 4a–g were assayed for their antiviral activity against several herpes viruses such as HSV-1 (strain F, VR-733), HSV-2 (strain MS, VR-540), VZV (Ellen, VR-1367), and HCMV (Davis, VR-807). Cytotoxicity data were measured in HEL299 (CCL-137) cells as described previously. […] Antiviral activity was measured using a standard cytopathic (CPE) inhibition assay as described before. Briefly, Vero cells in stationary phase were infected with the virus at a multiplicity of infection of 2–4 CCID50 (50% cell culture inhibitory dose) per each well of 96-well plates. After 2 h of adsorption at 37 °C, the liquid was aspirated and 100 μL of Dulbeco’s modified eagle’s media (DMEM)/2% fetal bovine serum (FBS) containing a compound was applied to each well in duplicate for each concentration and further incubated for 3 days. Antiviral activity was measured by MTT assay and expressed as the EC50. Cytocidal assay was performed as a control experiment for the antiviral assay. It was carried out simultaneously with the antiviral assay described above using mock instead of virus for infection, and cell viability was measured by MTT assay. The concentration of the compound responsible for 50% reduction of cell growth was calculated and expressed as CC50.

Series [2] relates to HSV-2 (strain MS, VR-540). As to the kind of experiment: CPE inhibition antiviral assay, HSV-2. The format is cell-based. Conditions: Human alphaherpesvirus 2, 72 h, inhibition of virus-induced cytopathic effect by 50%, MTT readout, 3 days. The method, then: as §1
Background: Protection from cytopathic effect is a common read-out in antiviral testing.

The test system of series [3] is HSV-1 (strain F, VR-733). Nature of the series: CPE inhibition antiviral assay, HSV-1. The format is cell-based, herpes simplex virus (HSV)-1. Conditions: Human alphaherpesvirus 1, 72 h, inhibition of virus-induced cytopathic effect by 50%, MTT readout, 3 days. The method, then:
as §1

Series [4] relates to HCMV (Davis, VR-807). Nature of the series: CPE inhibition antiviral assay, HCMV. The format is cell-based, human cytomegalovirus (HCMV). Conditions: Human betaherpesvirus 5; inhibition of virus-induced cytopathic effect by 50%; strain Davis; MTT readout. The method, then:
as §1

The nature of series [5]: Cytotoxicity (cytocidal) assay, MTT. The class given is cell-based. Conditions: human, 50% reduction of cell viability, mock infection. The method, then:
as §1

Series [6] concerns HSV-2 (strain MS, VR-540). Set-up: method as in PMID 20466277. Conditions: inhibition of virus-induced cytopathic effect by 50%, ref [11]; cited from earlier work.
For another series, the system named is HEL299 (CCL-137) cells. Conditions: read-out: CC50 HEL299, 50% reduction of cell viability, ref [11]; cited from earlier work.
In series [7] the test system is VZV (Ellen, VR-1367). On the set-up: method as in PMID 20466277. Conditions: inhibition of virus-induced cytopathic effect by 50%; strain Ellen; ref [11]; cited from earlier work.
The subject of series [8] is HSV-1 (strain F, VR-733). Set-up: method as in PMID 20466277. Conditions: inhibition of virus-induced cytopathic effect by 50%, ref [11]; cited from earlier work.
The test system of series [9] is HCMV (Davis, VR-807). On the set-up: method as in PMID 20466277. Conditions: inhibition of virus-induced cytopathic effect by 50%; strain Davis; ref [11]; cited from earlier work.

SMILES strings stand for the structures. Read-outs that look alike come from different tables or passages of the source.

As to `Nc1nc2c(ncn2COCCO)c(=O)[nH]1` [Compound 1, acyclovir, reference compound], the EC50 was 6.4 µM with VZV (Ellen, VR-1367) [1]; 1.02 µM in series [2]; 0.66 µM in the series on HSV-1 (strain F, VR-733) [3]; 18.9 µM in the series with HCMV (Davis, VR-807) [4].
Regarding `Nc1nc(O)c2ncn(COC(CO)CO)c2n1` [Compound 2, ganciclovir, reference compound], the CC50 at 3 days in series [5] (HEL299 (CCL-137) cells, mock-infected) was more than 100 µM. Also, the EC50 in the series with VZV (Ellen, VR-1367) [1] stood at 11.1 µM; in series [2], 1.4 µM; in the series on HSV-1 (strain F, VR-733) [3] it was 0.9 µM; with HCMV (Davis, VR-807) [4], 2.14 µM.
`O=c1[nH]cnc2c1ncn2C[Se]CCO` [Compound 3a, 9-((2-Hydroxyethylselanyl)methyl)-1H-purin-6-(9H)-one] came in with a melting point of 225 to 227 °C. The compound further had a CC50 at 3 days in series [5] (HEL299 cells) of more than 100 µM. Besides, the EC50 in the series with VZV (Ellen, VR-1367) [1] was more than 100 µM. In [2], this compound had an EC50 of more than 100 µM. Moreover, the EC50 in the series on HSV-1 (strain F, VR-733) [3] was more than 100 µM. Moreover, in the series on HCMV (Davis, VR-807) [4], the EC50 is more than 100 µM.
`CNc1ncnc2c1ncn2C[Se]CCO` [Compound 3b, 2-((6-(Methylamino)-9H-purin-9-yl)methylselanyl) ethanol] yielded a melting point of 171 to 173 °C. Moreover, in series [5] (HEL299 cells), the CC50 at 3 days is more than 100 µM. In the series on VZV (Ellen, VR-1367) [1], this compound gave an EC50 of more than 100 µM. Also, in series [2], the EC50 is more than 100 µM. This compound also gave an EC50 in the series with HSV-1 (strain F, VR-733) [3] of more than 100 µM. In the series on HCMV (Davis, VR-807) [4], the EC50 was more than 100 µM.
As for `Nc1ncnc2c1ncn2C[Se]CCO` [Compound 3c, 2-((6-Amino-9H-purin-9-yl)methylselanyl)ethanol], the melting point lay within 175 to 177 °C. Also, the CC50 at 3 days in series [5] (HEL299 cells) was more than 100 µM. For the same compound, in the series on VZV (Ellen, VR-1367) [1], the EC50 is more than 100 µM. In [2], this compound registered an EC50 of more than 100 µM. Moreover, in the series on HSV-1 (strain F, VR-733) [3], the EC50 was more than 100 µM. In the series on HCMV (Davis, VR-807) [4], the EC50 was more than 100 µM.
Regarding `O=c1[nH]cnc2c1ncn2C[Se]C(CO)CO` [Compound 3d, 9-((1,3-Dihydroxypropan-2-ylselanyl)methyl)-1H purin-6(9H)-one], in series [5] (HEL299 cells), the CC50 at 3 days is more than 100 µM. The EC50 is more than 100 µM with VZV (Ellen, VR-1367) [1]; more than 100 µM in [2]; more than 100 µM in the series on HSV-1 (strain F, VR-733) [3]; more than 100 µM with HCMV (Davis, VR-807) [4].
In turn, `CNc1ncnc2c1ncn2C[Se]C(CO)CO` [Compound 3e, 2-((6-(Methylamino)-9H-purin-9-yl)methylselanyl)propane-1,3-diol] gave a melting point of 180 to 183 °C. This compound also gave a 50% cytotoxic concentration (CC50) at 3 days in [5] (HEL299 cells) of more than 100 µM. This compound also came in with an EC50 in the series on VZV (Ellen, VR-1367) [1] of more than 100 µM. For the same compound, the EC50 in series [2] was more than 100 µM. Besides, in the series with HSV-1 (strain F, VR-733) [3], the concentration for a half-maximal effect (EC50) was more than 100 µM. Also, in the series with HCMV (Davis, VR-807) [4], the EC50 is more than 100 µM.
`Nc1ncnc2c1ncn2C[Se]C(CO)CO` [Compound 3f, 2-((6-Amino-9H-purin-9-yl)methylselanyl)propane-1,3-diol] yielded a melting point of 186 to 188 °C. For the same compound, in [5] (HEL299 cells), the CC50 at 3 days is more than 100 µM. The EC50 in the series on VZV (Ellen, VR-1367) [1] is more than 100 µM. The compound also came in with an EC50 in series [2] of more than 100 µM. The compound further came in with an EC50 in the series with HSV-1 (strain F, VR-733) [3] of more than 100 µM. In the series with HCMV (Davis, VR-807) [4], this compound yielded an EC50 of 65.2 µM.
For `Nc1nc2c(ncn2C[Se]CCO)c(=O)[nH]1` [Compound 4a, 9-((2-Hydroxyethylselanyl)methyl)-2-amino-1H purin-6(9H)-one], the EC50 is 6.34 µM in [6]; more than 100 µM in the series with VZV (Ellen, VR-1367) [7]; 1.47 µM in the series with HSV-1 (strain F, VR-733) [8]; more than 100 µM in the series with HCMV (Davis, VR-807) [9]. For the same compound, the 50% cytotoxic concentration (CC50) in the series on HEL299 (CCL-137) cells is more than 100 µM.
For the compound `CNc1nc(N)nc2c1ncn2C[Se]CCO` [Compound 4b, 2-((2-Amino-6-(methylamino)-9H-purin-9-yl)methylselanyl) ethanol], the melting point lay within 183 to 185 °C. The compound also had a CC50 at 3 days in series [5] (HEL299 cells) of more than 100 µM. The compound also showed an EC50 with VZV (Ellen, VR-1367) [1] of more than 100 µM. In [2], the EC50 is 17.6 µM. For the same compound, in the series on HSV-1 (strain F, VR-733) [3], the EC50 came out at 14.3 µM. Besides, the concentration giving a half-maximal response (EC50) in the series with HCMV (Davis, VR-807) [4] is more than 100 µM.
Take `Nc1nc(N)c2ncn(C[Se]CCO)c2n1` [Compound 4c, 2-((2,6-Diamino-9H-purin-9-yl)methylselanyl) ethanol]: the melting point was in the range of 84 to 86 °C. The compound also yielded a CC50 at 3 days in series [5] (HEL299 cells) of more than 100 µM. Also, in the series on VZV (Ellen, VR-1367) [1], the EC50 was more than 100 µM. The compound also yielded an EC50 in series [2] of 23.2 µM. In addition, the EC50 with HSV-1 (strain F, VR-733) [3] came out at 15.4 µM. The same compound displayed an EC50 in the series with HCMV (Davis, VR-807) [4] of more than 100 µM.
In the case of `Nc1nc2c(ncn2C[Se]C(CO)CO)c(=O)[nH]1` [Compound 4d, 9-((1,3-Dihydroxypropan-2-ylselanyl)methyl)-2-amino-1H-purin-6(9H)-one], the EC50 in [6] was more than 100 µM; in the series with VZV (Ellen, VR-1367) [7], more than 100 µM; in the series on HSV-1 (strain F, VR-733) [8], more than 100 µM; in the series with HCMV (Davis, VR-807) [9], 53.1 µM. Moreover, the CC50 in the series on HEL299 (CCL-137) cells is more than 100 µM.
Take `CNc1nc(N)nc2c1ncn2C[Se]C(CO)CO` [Compound 4e, 2-((2-Amino-6-(methylamio)-9H-purin-9-yl)methylselanyl) propane-1,3-diol]: the melting point was 140 to 143 °C. The CC50 at 3 days in [5] (HEL299 cells) was more than 100 µM. In addition, the EC50 with VZV (Ellen, VR-1367) [1] is more than 100 µM. In series [2], the EC50 was more than 100 µM. In the series on HSV-1 (strain F, VR-733) [3], this compound registered an EC50 of more than 100 µM. Also, a half-maximal response with HCMV (Davis, VR-807) [4] (EC50) required 32.1 µM.
As to `Nc1nc(N)c2ncn(C[Se]C(CO)CO)c2n1` [Compound 4f, 2-((2,6-Diamino-9H-purin-9-yl)methylselanyl)propane-1,3-diol], the melting point was 193 to 196 °C. Further, in series [5] (HEL299 cells), the CC50 at 3 days was more than 100 µM. Further, the EC50 in the series on VZV (Ellen, VR-1367) [1] was more than 100 µM. The compound also returned an EC50 in [2] of more than 100 µM. The compound also yielded an EC50 in the series on HSV-1 (strain F, VR-733) [3] of more than 100 µM. In addition, a half-maximal response in the series on HCMV (Davis, VR-807) [4] (EC50) required 34.3 µM.
With `Nc1nc(NC2CC2)c2ncn(C[Se]C(CO)CO)c2n1` [Compound 4g, 2-((2-Amino-6-(cyclopropylamino)-9H-purin-9-yl)methylselanyl)propane-1,3-diol], in series [5] (HEL299 cells), the CC50 at 3 days was more than 100 µM. Also, the EC50 in the series with VZV (Ellen, VR-1367) [1] was more than 100 µM; in [2], more than 100 µM; in the series with HSV-1 (strain F, VR-733) [3] it was more than 100 µM; in the series with HCMV (Davis, VR-807) [4], 41.1 µM.

For orientation: EC50 means the concentration needed to bring the measured effect to its halfway point. For orientation: CC50 means the concentration that lowers cell viability or growth by half. A word on the melting point: it is the temperature, or range, at which the solid turns liquid.

Values taken from paper PMC6152377, “Structure-Activity Relationships of Acyclic Selenopurine Nucleosides as Antiviral Agents” (Molecules : A Journal of Synthetic Chemistry and Natural …, 2017).
